Several values for one entry are separate records, joined by “and”; a condition that tells them apart may be missing. Equal values may be shown once.
What was measured:
[1] = tested on: CHO cells transfected with TRU-016; experiment: Effect of castanospermine concentration on cell viability, density and specific protein production of TRU-016; assay type: cell-based, Chinese hamster; conditions: for Viability at Harvest (%): harvest day 8, duplicate flasks, listed as CS
Experimental: Prior to initiation of the experiments, CHO cells transfected with TRU-016 were grown in shake flasks in Ex-Cell™ 302 CHO serum-free media (SAFC Biosciences) supplemented with 1× non-essential amino acids (MediaTech), 1× sodium pyruvate (MediaTech), 4 mM L-glutamine (MediaTech), 500 nM methotrexate (MP Biomedicals) and 1 mg/L recombinant insulin (Recombulin—GIBCO/Invitrogen Corp.) at 37° C. and 5% carbon dioxide in a humidified incubator. A 200 mM stock concentration of castanospermine (Alexis Biochemicals) was prepared by dilution of the castanospermine in sterile, distilled/deionized water (MediaTech) and filtration through a 13 mm Acrodisc® with a 0.2 μm HT Tuffryn membrane (Pall Corporation). Stock solution was aliquoted into sterile, O-ringed, 0.5 mL microcentrifuge tubes (Fisherbrand, Fisher Scientific) and frozen at −20° C. Approximately 1 hour prior to initiation of experiments, needed aliquots were thawed at room temperature and the contents of each vial mixed well by vortexing.
For each experiment, cells in log phase growth were seeded in the above medium into a total volume of 60 mL in 250 mL shaker flasks at a density of 200,000 cells/mL and CS added at the concentration to be tested. Final CS concentrations of 800 μM, 400 μM, 200 μM, 100 μM, 50 μM, 25 μM and 0 μM were each tested in duplicate flasks. All cultures were incubated at 37° C. and 5% carbon dioxide in a humidified incubator and monitored at least every other day for viable cell density and overall cell viability.
Cultures were harvested on day 8 when overall cell viability was 50-70% (Expt. 1) and 30-50% (Expt. 2). Cells and cellular debris were removed by centrifugation in a Sorvall Super T21 at 3000 rpm for 20 minutes after which the supernatant was sterile filtered through a Millipore Steriflip unit with a 0.22 μm Millipore Express Plus membrane and stored at 2-8° C. until purification.

[2] = target: T1, CD37 cell surface receptor (Homo sapiens, UniProt P11049); experiment: Binding of TRU-016 to B and non-B lymphocytes of human PBMC, two-color flow cytometry
T1 construct: Human PBMCs are isolated over LSM density gradients; endogenous in cells; host or cells: human PBMC
T1 sequence (P11049 1-281): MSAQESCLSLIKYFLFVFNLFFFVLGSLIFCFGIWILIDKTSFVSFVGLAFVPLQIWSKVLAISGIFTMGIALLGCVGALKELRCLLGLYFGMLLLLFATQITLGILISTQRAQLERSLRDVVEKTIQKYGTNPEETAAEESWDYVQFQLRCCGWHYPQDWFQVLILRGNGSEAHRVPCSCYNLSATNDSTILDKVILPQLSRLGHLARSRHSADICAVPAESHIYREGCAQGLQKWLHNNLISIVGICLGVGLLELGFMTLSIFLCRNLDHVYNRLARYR
Experimental: Experiments may be performed to confirm that the binding specificity of the parent antibody to the CD37 cell surface receptor is preserved in TRU-016. Human PBMCs are isolated over LSM density gradients and incubated with unconjugated TRU-016 and PE-conjugated anti-human CD19. Cells are washed and incubated with 1:100 FITC GAH IgG (Fc specific) for 45 minutes on ice. Cells are washed and analyzed by two-color flow cytometry on a FACsCalibur instrument using Cell Quest software. Cells are gated for B lymphocytes or non-B lymphocytes by CD19 staining.

Compound	reduction of TRU-016 protein production ([1]; 400 μm CS)	Viability at Harvest (%) ([1]; CS 25 μM)	Viability at Harvest (%) ([1]; CS 50 μM)	Viability at Harvest (%) ([1]; CS 100 μM)	Viability at Harvest (%) ([1]; CS 200 μM)	Viability at Harvest (%) ([1]; CS 400 μM)	Viability at Harvest (%) ([1]; CS 800 μM)	cell viability and growth as indicated by integral cell area (ICA) ([1]; CS 25-800 μM)	immunoglycoprotein production ([1]; increasing concentrations of castanospermine, 25-800 μM)	TRU-016 concentration at saturation of FITC signal on the B lymphocyte (CD19 positive gate) ([2]; CD19 positive gate)	mean fluorescence intensity (MFI) at saturation ([2]; CD19 positive gate)	staining of the non-B lymphocyte population ([2]; non-B lymphocyte gate)
O[C@H]1[C@H](O)[C@@H](O)CN2CC[C@H](O)[C@H]12 [castanospermine]	approximately 40%	53.9% and 54.5%	49.4% and 50.0%	54.4% and 54.6%	55.5% and 51.1%	65.7% and 68.2%	70.6% and 65.2%	did not appear to be significantly affected	appeared to reduce	–	–	–
TRU-016: recombinant single chain protein (SMIP) that binds CD37; G28-1 binding domain, modified hinge, human IgG1 CH2 and CH3; SEQ ID NO: 2	–	–	–	–	–	–	–	–	–	approximately 1 μg/mL	~1000	detectable, but very low

Source: patent US20100150948A1, “MATERIALS AND METHODS FOR IMPROVED IMMUNOGLYCOPROTEINS” (TRUBION PHARMACEUTICALS, INC., priority 2006, published 2010)
